Data: patent publication EP2951180B1, “2,6,7,8 SUBSTITUTED PURINES AS HDM2 INHIBITORS” (Merck Sharp & Dohme Corp., priority 2013, dated 2014)

Biological target: T1, HDM2 (Homo sapiens, UniProt Q00987)
T1 construct: Thioredoxin (N); made in house; host or cells: E. coli strain BL21(DE3)Rosetta
Assay: FRET assay (HDM2 inhibition; method not described in this part)
Assay type: binding

T1 sequence (Q00987 17-125): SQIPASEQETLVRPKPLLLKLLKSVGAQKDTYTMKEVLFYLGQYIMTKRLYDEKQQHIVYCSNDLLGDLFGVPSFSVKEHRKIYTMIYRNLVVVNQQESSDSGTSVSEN

Structure (SMILES) | IC50 (Table 1) [nM] | IC50 (Table 2) [nM] | other results
C[C@@H](Nc1nc(C(=O)O)nc2nc(-c3cc(N(C)C)ccn3)n(Cc3ccc(C(F)(F)F)cc3)c12)C1CCC1 [Example 1.47, 6-{[(1R)-1-cyclobutylethyl]amino}-8-[4-(dimethylamino)pyridin-2-yl]-7-[4-(trifluoromethyl)benzyl]-7H-purine-2-carboxylic acid] | 16.4 |  | 
CC(O)c1ccc(-c2nc3nc(C(=O)O)nc(N[C@H](C)C4CCC4)c3n2Cc2ccc(C(F)(F)F)cc2)cc1 (stereo partly drawn) [Example 1.101, 6-{[(1R)-1-cyclobutylethyl]amino}-8-[4-(1-hydroxyethyl)phenyl]-7-[4-(trifluoromethyl)benzyl]-7H-purine-2-carboxylic acid] | 34.2 |  | 
Cc1cccc(-c2nc3nc(C(=O)O)nc(N[C@H](C)C4CC4)c3n2Cc2ccc(C(F)(F)F)c(F)c2)c1 [Example 5.9, 6-{[(1R)-1-cyclopropylethyl]amino}-7-[3-fluoro-4-(trifluoromethyl)benzyl]-8-(3-methylphenyl)-7H-purine-2-carboxylic acid] |  |  | IC50 (Table 5): 119 nM
COc1ccc(-c2nc3nc(C(=O)O)nc(N[C@H](C)C4CC4)c3n2Cc2ccc(C(F)(F)F)cc2)cn1 [Example 2.48, 6-{[(1R)-1-cyclopropylethyl]amino}-8-(6-methoxypyridin-3-yl)-7-[4-(trifluoromethyl)benzyl]-7H-purine-2-carboxylic acid] |  | 680 | 
C[C@@H](Nc1nc(C(=O)O)nc2nc(-c3cc(CCC(C)(C)C)ccn3)n(Cc3ccc(C(F)(F)F)cc3)c12)C1CCC1 [Example 1.88, 6-{[(1R)-1-cyclobutylethyl]amino}-8-[4-(3,3-dimethylbutyl)pyridin-2-yl]-7-[4-(trifluoromethyl)benzyl]-7H-purine-2-carboxylic acid] | 19.6 |  | 
CCC(C)c1ccnc(-c2nc3nc(C(=O)O)nc(N[C@H](C)C4CCC4)c3n2Cc2ccc(C(F)(F)F)cc2)c1 (single isomer, unassigned) [Example 1.15] | 3.32 |  | 
Cc1ccc(-c2nc3nc(C(=O)O)nc(N[C@H](C)C4CC4)c3n2Cc2ccc(C(F)(F)F)cc2)c(C)c1 [Example 2.52, 6-{[(1R)-1-cyclopropylethyl]amino}-8-(2,4-dimethylphenyl)-7-[4-(trifluoromethyl)benzyl]-7H-purine-2-carboxylic acid] |  | 309 | 
Cc1ccc(F)cc1-c1nc2nc(C(=O)O)nc(N[C@H](C)C3CCC3)c2n1Cc1ccc(C(F)(F)F)cc1 [Example 1.103, 6-{[(1R)-1-cyclobutylethyl]amino}-8-(5-fluoro-2-methylphenyl)-7-[4-(trifluoromethyl)benzyl]-7H-purine-2-carboxylic acid] | 10.8 |  | 
C[C@@H](Nc1nc(C(=O)O)nc2nc(-c3ccccc3OC(F)(F)F)n(Cc3ccc(C(F)(F)F)cc3)c12)C1CC1 [Example 2.34, 6-{[(1R)-1-cyclopropylethyl]amino}-8-[2-(trifluoromethoxy)phenyl]-7-[4-(trifluoromethyl)benzyl]-7H-purine-2-carboxylic acid] |  | 21 | 
CCc1ccc(OC)c(-c2nc3nc(C(=O)O)nc(N[C@H](C)C4CCC4)c3n2Cc2ccc(C(F)(F)F)cc2)c1 [Example 1.31, 6-{[(1R)-1-cyclobutylethyl]amino}-8-(5-ethyl-2-methoxyphenyl)-7-[4-(trifluoromethyl)benzyl]-7H-purine-2-carboxylic acid] | 18.7 |  | 
COCCCOc1ccc(C)cc1-c1nc2nc(C(=O)O)nc(N[C@H](C)C3CC3)c2n1Cc1ccc(Cl)cc1 [Example 4.5, (R)-7-(4-chlorobenzyl)-6-((1-cyclopropylethyl)amino)-8-(2-(3-methoxypropoxy)-5-methylphenyl)-7H-purine-2-carboxylic acid] |  |  | IC50 (Table 4): 162 nM
Cc1cnc(-c2nc3nc(C(=O)O)nc(N[C@H](C)C4CCC4)c3n2Cc2ccc(C(F)(F)F)cc2)s1 [Example 3.7, 6-{[(1R)-1-cyclobutylethyl]amino}-8-(5-methyl-1,3-thiazol-2-yl)-7-[4-(trifluoromethyl)benzyl] -7H-purine-2-carboxylic acid] |  |  | IC50 (Table 3): 42 nM
CCOc1ccc(C(F)(F)F)cc1-c1nc2nc(C(=O)O)nc(N[C@H](C)C3CCC3)c2n1Cc1ccc(C(F)(F)F)cc1 [Example 1.33, 6-{[(1R)-1-cyclobutylethyl]amino}-8-[2-ethoxy-5-(trifluoromethyl)phenyl]-7-[4-(trifluoromethyl)benzyl] - 7H-purine-2-carboxylic acid] | 19.8 |  | 
C[C@@H](Nc1nc(C(=O)O)nc2nc(-c3ccc(-c4ccccc4)cc3)n(Cc3ccc(C(F)(F)F)cc3)c12)C1CCC1 [Example 1.109, 8-biphenyl-4-yl-6-{[(1R)-1-cyclobutylethyl]amino}-7-[4-(trifluoromethyl)benzyl]-7H-purine-2-carboxylic acid] | 473 |  | 
Cc1ccc(OCCO)c(-c2nc3nc(C(=O)O)nc(N[C@H](C)C4CC4)c3n2Cc2ccc(Cl)cc2)c1 [Example 4.10, (R)-7-(4-chlorobenzyl)-6-((1-cyclopropylethyl)amino)-8-(2-(2-hydroxyethoxy)-5-methylphenyl)-7H-purine-2-carboxylic acid] |  |  | IC50 (Table 4): 238 nM
C[C@@H](Nc1nc(C(=O)O)nc2nc(-c3cccnc3)n(Cc3ccc(C(F)(F)F)cc3)c12)C1CC1 [Example 2.44, 6-{[(1R)-1-cyclopropylethyl]amino}-8-pyridin-3-yl-7-[4-(trifluoromethyl)benzyl]-7H-purine-2-carboxylic acid] |  | 640 | 
C[C@@H](Nc1nc(C(=O)O)nc2nc(-c3ccc4c(ccn4C)c3)n(Cc3ccc(C(F)(F)F)cc3)c12)C1CCC1 [Example 1.108, 6-{[(1R)-1-cyclobutylethyl]amino}-8-(1-methyl-1H-indol-5-yl)-7-[4-(trifluoromethyl)benzyl]-7H-purine-2-carboxylic acid] | 60.9 |  | 
CCc1ccc(O)c(-c2nc3nc(C(=O)O)nc(N[C@H](C)C4CCC4)c3n2Cc2ccc(C(F)(F)F)cc2)c1 [Example 1.29, 6-{[(1R)-1-cyclobutylethyl]amino}-8-(5-ethyl-2-hydroxyphenyl)-7-[4-(trifluoromethyl)benzyl]-7H-purine-2-carboxylic acid] | 46.1 |  | 
C[C@@H](Nc1nc(C(=O)O)nc2nc(-c3ccc(C(F)(F)F)cc3)n(Cc3ccc(C(F)(F)F)cc3)c12)C1CC1 [Example 2.20, 6-{[(1R)-1-cyclopropylethyl]amino}-7-[4-(trifluoromethyl)benzyl]-8-[4-(trifluoromethyl)phenyl]-7H-purine-2-carboxylic acid] |  | 1410 | 
COc1cccc(-c2nc3nc(C(=O)O)nc(N[C@H](C)C4CC4)c3n2Cc2ccc(C(F)(F)F)cc2)c1 [Example 2.14, 6-{[(1R)-1-cyclopropylethyl]amino}-8-(3-methoxyphenyl)-7-[4-(trifluoromethyl)benzyl]-7H-purine-2-carboxylic acid] |  | 339 | 
COc1cc(-c2nc3nc(C(=O)O)nc(N[C@H](C)C4CCC4)c3n2Cc2ccc(C(F)(F)F)cc2)ccc1Cl [Example 1.124, 8-(4-chloro-3-methoxyphenyl)-6-{[(1R)-1-cyclobutylethyl]amino}-7-[4-(trifluoromethyl)benzyl]-7H-purine-2-carboxylic acid] | 26.4 |  | 
C[C@@H](Nc1nc(C(=O)O)nc2nc(-c3ccc(Br)cc3F)n(Cc3ccc(C(F)(F)F)cc3)c12)C1CC1 [Example 2.75, 8-(4-bromo-2-fluorophenyl)-6-{[(1R)-1-cyclopropylethyl]amino}-7-[4-(trifluoromethyl)benzyl]-7H-purine-2-carboxylic acid] |  | 204 | 
C[C@@H](Nc1nc(C(=O)O)nc2nc(-c3ccc(Cl)c(C(F)(F)F)c3)n(Cc3ccc(C(F)(F)F)cc3)c12)C1CCC1 [Example 1.115, 8-[4-chloro-3-(trifluoromethyl)phenyl]-6-{[(1R)-1-cyclobutylethyl]amino}-7-[4-(trifluoromethyl)benzyl]-7H-purine-2-carboxylic acid] | 17.3 |  | 
C[C@@H](Nc1nc(C(=O)O)nc2nc(-c3nccs3)n(Cc3ccc(Cl)cc3)c12)C1CC1 [Example 3.8, 7-(4-chlorobenzyl)-6-{[(1R)-1-cyclopropylethyl]amino}-8-(1,3-thiazol-2-yl)-7H-purine-2-carboxylic acid] |  |  | IC50 (Table 3): 98.8 nM
CCc1ccccc1-c1nc2nc(C(=O)O)nc(N[C@H](C)C3CCC3)c2n1Cc1ccc(C(F)(F)F)cc1 [Example 2.81, 6-{[(1R)-1-cyclobutylethyl]amino} -8-(2-ethylphenyl)-7-[4-(trifluoromethyl)benzyl] - 7H-purine-2-carboxylic acid] |  | 18 | 
CCc1cccc(-c2nc3nc(C(=O)O)nc(N[C@H](C)C4CC4)c3n2Cc2ccc(C(F)(F)F)cc2)c1 [Example 2.16, 6-{[(1R)-1-cyclopropylethyl]amino}-8-(3-ethylphenyl)-7-[4-(trifluoromethyl)benzyl]-7H-purine-2-carboxylic acid] |  | 180 | 
C[C@@H](Nc1nc(C(=O)O)nc2nc(-c3ccc(Cl)c(F)c3)n(Cc3ccc(C(F)(F)F)cc3)c12)C1CC1 [Example 2.53, 8-(4-chloro-3-fluorophenyl)-6-{[(1R)-1-cyclopropylethyl]amino}-7-[4-(trifluoromethyl)benzyl]-7H-purine-2-carboxylic acid] |  | 200 | 
CC(C)c1cccc(-c2nc3nc(C(=O)O)nc(N[C@H](C)C4CCC4)c3n2Cc2ccc(C(F)(F)F)cc2)c1 [Example 2.24, 6-{[(1R)-1-cyclobutylethyl]amino}-8-[3-(1-methylethyl)phenyl]-7-[4-(trifluoromethyl)benzyl]-7H-purine-2-carboxylic acid] |  | 14.7 | 
C[C@@H](Nc1nc(C(=O)O)nc2nc(-c3cc(C(F)F)ccn3)n(Cc3ccc(C(F)(F)F)cc3)c12)C1CCC1 [Example 1.46, 6-{[(1R)-1-cyclobutylethyl]amino}-8-[4-(difluoromethyl)pyridin-2-yl]-7-[4-(trifluoromethyl)benzyl]-7H-purine-2-carboxylic acid] | 12.3 |  | 
C[C@@H](Nc1nc(C(=O)O)nc2nc(-c3ccc(OC(F)(F)F)cc3)n(Cc3ccc(C(F)(F)F)cc3)c12)C1CC1 [Example 2.27, 6-{[(1R)-1-cyclopropylethyl]amino}-8-[4-(trifluoromethoxy)phenyl]-7-[4-(trifluoromethyl)benzyl]-7H-purine-2-carboxylic acid] |  | 1140 | 
